Source: patent publication EP3685668B1, “COMPOSITION COMPRISING ACIBENZOLAR-S-METHYL AS EFFECTIVE INGREDIENT FOR CONTROLLING BURSAPHELENCHUS XYLOPHILUS DISEASE AND METHOD FOR CONTROLLING BURSAPHELENCHUS XYLOPHILUS USING SAME” (Industry Foundation of Chonnam National University, priority 2017, dated 2019)

How the values were obtained:
[1] = tested on: Bursaphelenchus xylophilus; assay: Occurrence of pine wilt disease after trunk injection of induced resistance candidate materials, in vivo test in young red pine trees; conditions: red pine tree (Pinus densiflora), 30 days after inoculation; for Occurrence rate of pine wilt disease: Number of pine trees showing wilt symptoms / Number of pine trees used for the test: trunk injection 100 µℓ per tree; for Number of pine trees showing wilt symptoms only at growing points of a stem: trunk injection
Procedure: By using the 15 types of an induced resistance elicitors which have been known to induce the plant resistance against various diseases as candidates, their controlling effect against pine wilt disease was examined. The control efficacy of candidates against pine wilt disease was analyzed according to an in vivo test using red pine tree (Pinus densiflora) which was 2-year old young pine trees (diameter of 5.5 mm or so, and height of about 35 mm).
As a candidate group of an induced resistance material, two kinds of acibenzolar-S-methyl (ASM), TDL (Tiadinil), ITL (Isotianil), PBZ (Probenzole), AZO (Azoxystrobin), VMA (Validamycin A), MeJA (Methyl jasmonate), BABA (DL-3-aminobutyric acid), 2,3-BDO (2,3-Butanediol), SA (salicyclic acid), GABA (r-Aminobutyric acid), glucan (Glucan), ER (Ergosterol), and AZA (Azelaic acid) were used. Only the use of acibenzolar-S-methyl is according to the invention. Injection of the chemicals was carried out by trunk injection method, i.e., at an angle of 45°, a borehole was created by using an electric drill with thickness of 1.5 mm on a pine stem part that is 5 to 10 cm above the soil surface, a tip (200 µℓ) was inserted to the hole, and, after dissolving the candidate material at concentration level of 200, 20, or 2 µg/mℓ in each solvent, the solution was injected in an amount of 100 µℓ per pine tree. After the injection of the chemical agent, the end part of the tip was sealed with parafilm.
The pine tree wilt nematodes (Bursaphelenchus xylophilus, National Institute of Forest Science (NIFoS), South Korea) was incubated at 25°C by feeding them with Botrytis cinerea, which have been cultured on a potato dextrose agar (PDA) medium, and after one week incubation, they were collected by Baermann funnel method and were adjusted to the level of 20,000 worms/mℓ by examining the number of the worms under an optical microscope. One week after the chemical treatment, the inoculation of the pine tree wilt nematodes was carried out by tree barking inoculation of 100 µℓ, i.e., 2,000 worms, per tree, and the result was determined 30 days after the inoculation. […] [Table 1] Occurrence rate of pine wilt disease in candidate group of induced resistance materials

Heat shock 70 = assay: qRT-PCR expression of induced resistance gene in pine tree callus; type: cell-based; conditions: 200 µg/mℓ, 24 hours
PR_10 family = assay: as above; type: cell-based; conditions: 200 µg/mℓ, 24 hours
Summary of the method: (§1)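 Pine callus (100 mg) in LM liquid medium treated with candidate inducers at 200 µg/mℓ final, applied to the surface or sprayed, shaken 50 rpm at 25 °C in the dark for 24 h (acibenzolar-S-methyl also 1, 7 or 14 days). Gene expression by qRT-PCR on callus RNA, with elongation factor_1 alpha as reference.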

PR_1b family = assay: as above; type: cell-based; conditions: 200 µg/mℓ, 24 hours
Summary of the method: as §1

PR_3 family class 1 = assay: as above; type: cell-based; conditions: 200 µg/mℓ, 24 hours
PR_3 family class 4 = assay: as above; type: cell-based; conditions: 200 µg/mℓ, 24 hours
Summary of the method: as §1

PR_5 family = assay: as above; type: cell-based; conditions: 200 µg/mℓ, 24 hours
Summary of the method: as §1

PR_9 family = assay: as above; type: cell-based; conditions: 200 µg/mℓ, 24 hours
Summary of the method: as §1

Xyloglucan = assay: as above; type: cell-based; conditions: 200 µg/mℓ, 24 hours
[2] = tested on: induced resistance-related genes; assay: qRT-PCR expression of induced resistance genes in pine tree callus, overall statement; type: cell-based; conditions: 200 µg/mℓ
Procedure: For in vitro analysis of induced resistance, the expression of PR genes and other plant defense-related genes was determined, which are evolved in various defense mechanisms including induced resistance. The primers of sixteen induced resistance-related genes of pine tree used in this invention were listed in the below and elongation factor_1 alpha were used as a reference gene. [Table 4] The primer list of defense resistance-related genes
After the treatment with 200 µg / mℓ of candidates of the selected induced resistance material, expression of the induced resistance-related gene in pine callus was determined by qRT-PCR using the primer pairs of defense resistance-related genes in Table 4. As a candidate group of an induced resistance material in pine tree, acibenzolar-S-methyl (ASM), TDL (Tiadinil), ITL (Isotianil), PBZ (Probenzole), AZO (Azoxystrobin), VMA (Validamycin A), MeJA (Methyl jasmonate), BABA (DL-3-aminobutyric acid), 2,3-BDO (2,3-Butanediol), GABA (r-Aminobutyric acid), glucan (Glucan), ER (Ergosterol), and AZA (Azelaic acid) were used. For the in vitro analysis of the expression of induced resistance gene in pine callus, the selected induced resistance materials were applied with 500 µℓ of LM liquid medium on a surface of pine tree callus (100 mg) in 12-well microplate to give final concentration of 200 µg/mℓ. Then, the callus surface was sufficiently reacted for 24 hours with the candidate of pine tree induced resistance material by shaking at 50 rpm in a 25 °C shaking incubator under dark condition. RNAs were extracted from the callus after completion of the reaction with an induced resistance material, followed by synthesis of cDNAs. Then, by carrying out qRT-PCR, the expression of induced resistance genes was determined. [Table 5] Expression of induced resistance gene in pine tree callus by TDL, PBZ, ASM, ITL, AZO, VMA, glucan, and AZA

Compound | Occurrence rate of pine wilt disease: Number of pine trees showing wilt symptoms / Number of pine trees used for the test ([1]; 2 µg/mℓ) | Occurrence rate of pine wilt disease: Number of pine trees showing wilt symptoms / Number of pine trees used for the test ([1]; 20 µg/mℓ) | Occurrence rate of pine wilt disease: Number of pine trees showing wilt symptoms / Number of pine trees used for the test ([1]; 200 µg/mℓ) | Number of pine trees showing wilt symptoms only at growing points of a stem ([1]; 2 µg/mℓ) | Number of pine trees showing wilt symptoms only at growing points of a stem ([1]; 20 µg/mℓ) | Expression of induced resistance gene, Heat shock 70 (Heat shock 70) | Expression of induced resistance gene, PR_10 family (PR_10 family) | Expression of induced resistance gene, PR_1b family (PR_1b family) | Expression of induced resistance gene, PR_3 family class 1 (PR_3 family class 1) | Expression of induced resistance gene, PR_3 family class 4 (PR_3 family class 4) | Expression of induced resistance gene, PR_5 family (PR_5 family) | Expression of induced resistance gene, PR_9 family (PR_9 family) | Expression of induced resistance gene, Xyloglucan (Xyloglucan) | expression of induced resistance-related genes is induced overall [2] | Number of pine trees showing wilt symptoms only at growing points of a stem ([1]; 200 µg/mℓ)
NCCCC(=O)O [GABA, r-Aminobutyric acid] | 3/3 | 1/3 | 0/3 | 1 | 1 | 2.58 | 1.57 | 1.78 | 3.07 | 8.75 | 3.78 | 0.7 | 3.46 | ≥ 2 times | 
N#Cc1ccccc1NC(=O)c1snc(Cl)c1Cl [ITL, Isotianil] | 2/3 | 2/3 | 1/3 | 1 | 2 | 0.43 | 1 | 1.77 | 0.95 | 0.81 | 0.95 | 1.88 | 0.97 |  | 1
CC/C=C\CC1C(=O)CCC1CC(=O)OC (stereo not drawn) [MeJA, Methyl jasmonate] | 3/3 | 2/3 | 2/3 | 1 | 1 | 0.69 | 1.34 | 0.5 | 0.54 | 0.79 | 0.95 | 0.47 | 0.44 |  | 2
C=CCOC1=NS(=O)(=O)c2ccccc21 [PBZ, Probenzole] | 2/3 | 0/3 | 1/3 | 1 |  | 0.73 | 2.08 | 0.26 | 1.04 | 0.74 | 1.99 | 2.52 | 1.41 |  | 1
Cc1ccc(NC(=O)c2snnc2C)cc1Cl [TDL, Tiadinil] | 3/3 | 2/3 | 1/3 | 3 | 2 | 0.29 | 1.19 | 1.05 | 0.82 | 1.22 | 1.33 | 1.48 | 1.23 |  | 1
OCC1=C[C@@H](N[C@H]2C[C@H](CO)[C@@H](O[C@H]3O[C@@H](CO)[C@H](O)[C@@H](O)[C@@H]3O)[C@H](O)[C@H]2O)[C@H](O)[C@@H](O)[C@@H]1O [VMA, Validamycin A] | 2/3 | 1/3 | 2/3 | 2 | 1 | 2.19 | 1.56 | 0.73 | 1.67 | 2.95 | 4.66 | 1.37 | 1.99 | ≥ 2 times | 1
